Reference: ChEMBL document CHEMBL6120991, “Chromones Featuring a [6,6]-Spiroketal Moiety Produced by Coculture of the Endophytic Fungi Chaetomium virescens and Xylaria Grammica” (J Nat Prod, 2025)
The source made the active and inactive calls. The calls are words filed in the database; no cut-off is given here.

Legend:
SW620/AD300 [1] = assay: Cytotoxicity against multidrug resistant human SW620/AD300 cells assessed as inhibition of cell viability at 20 uM measured after 72 hrs in presence of paclitaxel by CCK-8 method relative to control; type: functional
[2] = target: ATP-dependent translocase ABCB1 (Homo sapiens, UniProt P08183); assay: Induction of thermal stabilization of P-gp in multidrug resistant human SW620/AD300 cells at 20 uM incubated for 30 mins by CESTA analysis; type: cell-based; details: sw620/ad300, 0.5 h
Chain of ATP-dependent translocase ABCB1 (P08183 whole entry): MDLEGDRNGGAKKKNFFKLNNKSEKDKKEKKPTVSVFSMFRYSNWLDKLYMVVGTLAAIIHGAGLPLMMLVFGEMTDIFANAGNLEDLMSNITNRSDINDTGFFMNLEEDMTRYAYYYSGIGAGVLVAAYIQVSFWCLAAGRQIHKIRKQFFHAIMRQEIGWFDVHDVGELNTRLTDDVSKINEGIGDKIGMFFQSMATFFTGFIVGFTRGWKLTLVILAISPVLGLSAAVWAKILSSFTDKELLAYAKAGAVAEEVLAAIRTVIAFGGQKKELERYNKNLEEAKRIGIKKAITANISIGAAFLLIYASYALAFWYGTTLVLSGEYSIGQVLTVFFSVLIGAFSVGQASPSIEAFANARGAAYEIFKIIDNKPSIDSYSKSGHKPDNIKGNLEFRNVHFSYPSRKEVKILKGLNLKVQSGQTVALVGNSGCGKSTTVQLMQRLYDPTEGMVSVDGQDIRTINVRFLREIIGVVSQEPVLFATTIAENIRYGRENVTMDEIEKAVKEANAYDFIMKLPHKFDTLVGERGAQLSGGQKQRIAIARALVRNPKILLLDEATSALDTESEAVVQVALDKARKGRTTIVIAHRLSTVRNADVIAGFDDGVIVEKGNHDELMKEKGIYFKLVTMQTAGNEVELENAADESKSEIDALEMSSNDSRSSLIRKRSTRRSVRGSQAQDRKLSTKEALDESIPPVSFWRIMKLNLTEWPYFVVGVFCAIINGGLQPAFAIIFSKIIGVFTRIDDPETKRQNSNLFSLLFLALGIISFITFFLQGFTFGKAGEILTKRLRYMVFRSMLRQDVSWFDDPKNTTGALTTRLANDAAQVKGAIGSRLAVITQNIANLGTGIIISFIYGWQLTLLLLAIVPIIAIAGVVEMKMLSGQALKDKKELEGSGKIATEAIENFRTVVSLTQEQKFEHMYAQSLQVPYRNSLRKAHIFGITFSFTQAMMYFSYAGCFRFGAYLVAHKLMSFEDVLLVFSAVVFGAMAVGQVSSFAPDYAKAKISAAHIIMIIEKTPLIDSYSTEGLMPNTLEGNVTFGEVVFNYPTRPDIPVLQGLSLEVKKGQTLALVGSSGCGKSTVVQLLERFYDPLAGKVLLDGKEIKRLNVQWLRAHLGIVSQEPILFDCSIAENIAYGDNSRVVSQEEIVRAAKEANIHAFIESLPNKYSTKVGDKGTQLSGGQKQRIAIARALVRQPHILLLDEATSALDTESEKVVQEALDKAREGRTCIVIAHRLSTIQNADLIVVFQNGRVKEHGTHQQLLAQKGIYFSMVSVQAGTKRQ

SW620/AD300 [3] = assay: Reversal of multi-drug resistance in human SW620/AD300 cells assessed as decrease in colony number at 20 uM presence of 0.25 uM of paclitaxel incubated for 7 days by crystal violet staining based analysis; type: functional, cell-based; details: time 7.0 day
SW620/AD300 [4] = assay: Inhibition of colony formation in human SW620/AD300 cells assessed as decrease in colony number at 20 uM incubated for 7 days by crystal violet staining based analysis; type: functional, cell-based; details: time 7.0 day
SW620/AD300 [5] = assay: Reversal of multi-drug resistance in human SW620/AD300 cells assessed as decrease in colony number at 20 uM presence of 1 uM of paclitaxel incubated for 7 days by crystal violet staining based analysis; type: functional, cell-based; details: time 7.0 day
SW620/AD300 [6] = assay: Reversal of multi-drug resistance in human SW620/AD300 cells assessed as decrease in frequency of cells in G0/G1 phase at 20 uM presence of 1 uM of paclitaxel incubated for 24 hrs by PI staining based flow cytometry analysis; type: functional, cell-based
SW620/AD300 [7] = assay: Reversal of multi-drug resistance in human SW620/AD300 cells assessed as increase in frequency of cells in G2/M phase at 20 uM presence of 1 uM of paclitaxel incubated for 24 hrs by PI staining based flow cytometry analysis; type: functional, cell-based
SW620/AD300 [8] = assay: Cytotoxicity against multidrug resistant human SW620/AD300 cells assessed as inhibition of cell viability at 1 uM measured after 72 hrs by CCK-8 method relative to control; type: functional
SW620/AD300 [9] = assay: Inhibition of colony formation in human SW620/AD300 cells assessed as decrease in colony number at 1 uM incubated for 7 days by crystal violet staining based analysis; type: functional, cell-based; details: time 7.0 day

SMILES | inhibition at 20 µM (SW620/AD300 [1]) [%] | also measured
COc1cc2oc(C)cc(=O)c2c2c1C[C@@H](C)[C@@]1(O2)O[C@@H](C)C[C@H](O)[C@@H]1O | 19.6 | 
COc1cc2oc(CO)cc(=O)c2c2c1C[C@@H](C)[C@@]1(O2)O[C@@H](C)C[C@H](O)[C@@H]1O | 11.2 | 
COc1cc2oc(CO)cc(=O)c2c2c1C[C@@H](C)[C@@]1(C[C@@H](NCC/C(C)=C/C(=O)O)C[C@H](C)O1)O2 | 46.4 | 
COc1cc2oc(C)cc(=O)c2c2c1C[C@H](C)[C@@]1(C[C@H](OC)C[C@H](C)O1)O2 | 29.2 | 
COc1cc2oc(C)cc(=O)c2c2c1C[C@@H](C)[C@@]1(C[C@@H](O)C[C@H](C)O1)O2 | 10 | 
COc1cc2oc(C)cc(=O)c2c2c1CC[C@@]1(O2)O[C@@H](C)C[C@H](O)[C@@H]1O | 3.1 | 
COc1cc2oc(C)cc(=O)c2c2c1CC(C)C1(O2)OC(C)CC(O)C1O (stereo not given) | 11.1 | 
COc1cc2oc(C)cc(=O)c2c2c1C[C@H](C)[C@@]1(O2)O[C@@H](C)CCC1=O | 24.5 | 
COc1cc2oc(CO)cc(=O)c2c2c1C[C@H](C)[C@@]1(O2)O[C@@H](C)C[C@H](O)[C@@H]1O | 15.3 | 
COc1cc2oc(C)cc(=O)c2c2c1C[C@@H](C)[C@@]1(C[C@H](OC)C[C@H](C)O1)O2 | 77.8 | Activity [2]: Active; Activity (SW620/AD300 [3]): Active; inhibition (SW620/AD300 [4]): inactive; Activity (SW620/AD300 [5]): Active; Activity (SW620/AD300 [6]): Active; Activity (SW620/AD300 [7]): Active
CC(=O)O[C@H]1C(=O)[C@@]2(C)[C@H]([C@H](OC(=O)c3ccccc3)[C@]3(O)C[C@H](OC(=O)[C@H](O)[C@@H](NC(=O)c4ccccc4)c4ccccc4)C(C)=C1C3(C)C)[C@]1(OC(C)=O)CO[C@@H]1C[C@@H]2O [PACLITAXEL] |  | inhibition at 1 µM (SW620/AD300 [8]): 1.1%; inhibition (SW620/AD300 [9]): inactive
COc1cc2oc(C)cc(=O)c2c2c1C[C@@H](C)[C@@]1(C[C@H](O)C[C@H](C)O1)O2 | 0.2 | 
COc1cc2oc(C)cc(=O)c2c2c1C[C@H](C)[C@@]1(O2)O[C@@H](C)C[C@H](O)[C@@H]1O | 22 | 
